Test results from US4407815A, “β-Lactam antibacterial compounds, their preparation and pharmaceutical compositions containing them” (Beecham Group Limited, priority 1980, dated 1983).

Experiments:
Assay in all cases: Minimum Inhibitory Concentration, serial dilution on DST agar
Format in all cases: cell-based
B. subtilis = conditions: DST agar + 10% horse blood, 0.001 ml of 10^-2 dilution (Gram-positive), 37° C., 18 h; for MIC: Bacillus subtilis
Protocol: (§1) ^a Determined by serial dilution on DST agar containing 10% horse
(§2) blood using an inoculum of 0.001 ml of a 10^-2 dilution for
(§3) Grampositive bacteria or a 10^-4 dilution for Gramnegative organisms.
(§4) MIC values were read after incubation at 37° C. for 18 h.

E. coli = conditions: DST agar + 10% horse blood, 0.001 ml of 10^-4 dilution (Gram-negative), 37° C., 18 h; for MIC: Escherichia coli
Protocol: as §1, §2, §3, §4

Klebsiella aerogenes = conditions: DST agar + 10% horse blood, 0.001 ml of 10^-4 dilution (Gram-negative), 37° C., 18 h
Protocol: as §1, §2, §3, §4

Proteus mirabilis = conditions: DST agar + 10% horse blood, 0.001 ml of 10^-4 dilution (Gram-negative), 37° C., 18 h
Protocol: as §1, §2, §3, §4

S. typhimurium = conditions: DST agar + 10% horse blood, 0.001 ml of 10^-4 dilution (Gram-negative), 37° C., 18 h; for MIC: Salmonella enterica
Protocol: as §1, §2, §3, §4

Staph. aureus Oxford = conditions: DST agar + 10% horse blood, 0.001 ml of 10^-2 dilution (Gram-positive), 37° C., 18 h; for MIC: Staphylococcus aureus
Protocol: as §1, §2, §3, §4

Staph. aureus Russell = conditions: lactamase-producing benzylpenicillin-resistant strain, DST agar + 10% horse blood, 0.001 ml of 10^-2 dilution (Gram-positive), 37° C., 18 h; for MIC: Staphylococcus aureus
Protocol: as §1, §2, §3, §4
^b Lactamase-producing benzylpenicillinresistant strain.

Strep. faecalis = conditions: DST agar + 10% horse blood, 0.001 ml of 10^-2 dilution (Gram-positive), 37° C., 18 h
Protocol: as §1, §2, §3, §4

Strep. pneumoniae = conditions: DST agar + 10% horse blood, 0.001 ml of 10^-2 dilution (Gram-positive), 37° C., 18 h
Protocol: as §1, §2, §3, §4

Row | SMILES | MIC (B. subtilis) | MIC (E. coli) | MIC (Klebsiella aerogenes) | MIC (Proteus mirabilis) | MIC (S. typhimurium) | MIC (Staph. aureus Oxford) | MIC (Staph. aureus Russell) | MIC (Strep. faecalis; Enterococcus faecalis) | MIC (Strep. pneumoniae; Streptococcus pneumoniae) | Minimum Inhibitory Concentration (B. subtilis) | Minimum Inhibitory Concentration (E. coli) | Minimum Inhibitory Concentration (Klebsiella aerogenes) | Minimum Inhibitory Concentration (Proteus mirabilis) | Minimum Inhibitory Concentration (S. typhimurium) | Minimum Inhibitory Concentration (Staph. aureus Oxford) | Minimum Inhibitory Concentration (Strep. faecalis) | Minimum Inhibitory Concentration (Strep. pneumoniae) | Minimum Inhibitory Concentration (Staph. aureus Russell)
1 | COC(=O)C1=C[C@@H]2[C@H](NC(=O)COc3ccccc3)C(=O)N2[C@H]1C(=O)O (relative stereo) [(39), (2RS, 5RS, 6SR) Sodium 1-aza-3-methoxycarbonyl-6-phenoxyacetamido-bicyclo-[3.2.0]-hept-3-en-7-one-2-carboxylate] | 1 µg/mL | > 100 µg/mL | > 100 µg/mL | > 100 µg/mL | > 100 µg/mL | 2.5 µg/mL | > 100 µg/mL | – | – | – | – | – | – | – | – | – | – | –
2 | N#CC1=C[C@@H]2[C@H](NC(=O)COc3ccccc3)C(=O)N2[C@H]1C(=O)O (relative stereo) [(57)] | 2.5 µg/mL | > 50 µg/mL | > 50 µg/mL | > 50 µg/mL | > 50 µg/mL | 5 µg/mL | 50 µg/mL | > 50 µg/mL | 1.2 µg/mL | – | – | – | – | – | – | – | – | –
3 | COC(=O)C1=C[C@@H]2[C@H](NC(=O)[C@H](N)c3ccccc3)C(=O)N2[C@H]1C(=O)O.Cc1ccc(N)cc1 (racemic) [(48), (2RS, 5RS, 6SR) 1-Aza-3-methoxycarbonyl-6-D-α-phenylglycylamino-bicyclo-[3.2.0]-hept-3-en-7-one-2-carboxylic acid, p-toluidine salt] | – | – | – | – | – | – | – | – | – | 1.2 µg/mL | 50 µg/mL | 50 µg/mL | 25 µg/mL | 12.5 µg/mL | 12.5 µg/mL | 12.5 µg/mL | 0.5 µg/mL | > 50 µg/mL
4 | COC(=O)C1=C[C@@H]2[C@H](NC(=O)C(C(=O)OCc3ccccc3)c3ccccc3)C(=O)N2[C@H]1C(=O)O.Cc1ccc(N)cc1 (mixture of isomers) [(54), (2RS, 5RS, 6SR) 1-Aza-6-(DL-α-benzyloxycarbonyl-phenylacetamido)-3-methoxycarbonylbicyclo [3.2.0]-hept-3-en-7-one-2-carboxylic acid, p-toluidine salt] | – | – | – | – | – | – | – | – | – | 25 µg/mL | > 100 µg/mL | 100 µg/mL | > 100 µg/mL | 100 µg/mL | > 100 µg/mL | > 100 µg/mL | 10 µg/mL | > 100 µg/mL
